Experimental data published in patent publication US11160887B2, “Compositions for use in diagnosing and treating melanoma, including metastatic melanoma and methods related to same” (UNM RAINFOREST INNOVATIONS, priority 2008, dated 2021).
Like-named read-outs stand apart in the source and are kept apart here. Residues, ends and D or L forms follow the SMILES beside them.

Tests used:
[1] = test system: B16/F10 pulmonary metastatic melanoma-bearing C57 mice; experiment: Biodistribution in B16/F10 pulmonary metastatic melanoma-bearing C57 mice; type: in vivo, mouse
Description: (§1) Biodistribution Studies: All the animal studies were conducted in compliance with Institutional Animal Care and Use Committee approval. B16/F10 pulmonary metastatic melanoma model was established by injecting 0.2 million of cultured B16/F10 cells into each C57 mouse (Harlan, Indianapolis, Ind.) through the tail vein. The B16/F10 pulmonary metastatic melanoma-bearing C57 mice were used for biodistribution studies 16 days after the cell injection. The pharmacokinetics of ^111In-DOTA-GlyGlu-CycMSH was determined in B16/F10 pulmonary metastatic melanoma-bearing and normal C57 mice. HPLC-purified 0.037 MBq of ^111In-DOTA-GlyGlu-CycMSH was injected into each mouse through the tail vein. Groups of 5 mice were sacrificed at 2, 4 and 24 h post-injection, and tumors and organs of interest were harvested, weighed and counted. Blood values were taken as 6.5% of the whole-body weight. Statistical analysis was performed using the Student's t-test for unpaired data.

[2] = as above; type: in vivo, mouse; details: C57, mouse, iv, 0.037 MBq, total radioactivity
Description: as §1

[3] = Stability in mouse serum monitored by RP-HPLC; type: in vitro ADME; details: 37° C., 24 h incubation
Description: Complexation of the Peptide with ^111In: ^111In-DOTA-CycMSH and ^111In-DOTA-GlyGlu-CycMSH were prepared using a 0.5 M NH4OAc-buffered solution at pH 5.4. Briefly, 50 μl of ^111InCl3 (18.5-37.0 MBq in 0.05 M HCl), 10 μl of 1 mg/ml DOTA-CycMSH or DOTA-GlyGlu-CycMSH aqueous solution and 400 μl of 0.5 M NH4OAc (pH 5.4) were added into a reaction vial and incubated at 75° C. for 45 min. After the incubation, 20 μl of 0.5% EDTA aqueous solution was added into the reaction vial to scavenge potential unbound ^111In. The radiolabeled complexes were purified to single species by Waters RP-HPLC (Milford, Mass.) on a Grace Vadyc C-18 reverse phase analytical column (Deerfield, Ill.) using a 20-minute gradient of 16-26% acetonitrile in 20 mM HCl aqueous solution with a flowrate of 1 ml/min. Purified peptide samples were purged with N2 gas for 20 minutes to remove the acetonitrile. The pH of final solution was adjusted to 7.4 with 0.1 N NaOH and normal saline for animal studies. The stability of ^111In-DOTA-CycMSH and ^111In-DOTA-GlyGlu-CycMSH was determined by incubation in mouse serum at 37° C. according to the published procedure (20) for various time periods, and monitored for degradation by RP-HPLC.

With `CCCC[C@@H]1NC(=O)[C@@H](NC(=O)[C@H](CCC(=O)O)NC(=O)CNC(=O)CN2CCN(CC(=O)O)CCN(CC(=O)O)CCN(CC(=O)O)CC2)CCCCNC(=O)[C@H](CC(=O)O)NC(=O)[C@H](C(C)C)NC(=O)[C@@H]2CCCN2C(=O)[C@H](CCCNC(=N)N)NC(=O)CNC(=O)[C@H](Cc2c[nH]c3ccccc23)NC(=O)[C@H](CCCNC(=N)N)NC(=O)[C@@H](Cc2ccccc2)NC(=O)[C@H](Cc2c[nH]cn2)NC(=O)[C@H](CCC(=O)O)NC1=O` [^111In-DOTA-GlyGlu-CycMSH, metal not drawn] (HELM PEPTIDE1{[O=C(O)CN1CCN(CC(=O)O)CCN(CC(=O)[*:2])CCN(CC(=O)O)CC1].G.E.K.[Nle].E.H.[dF].R.W.G.R.P.V.D}$PEPTIDE1,PEPTIDE1,4:R3-15:R2$$$V2.0) the “uptake in metastatic melanoma-bearing lung relative to normal lung” value ([1]; 2 h post-injection) was 25.0 times, the “uptake in metastatic melanoma-bearing lung relative to normal lung” value ([1]; 4 h post-injection) was 36.6 times and the “uptake in metastatic melanoma-bearing lung relative to normal lung” value ([1]; 24 h post-injection) was 9.7 times. It also gave a dose excreted ([2]; in vivo, at 24 h post-injection, read-out: injected radioactivity cleared out the body) of about 96%, a tissue uptake at 2 h ([2]; metastatic melanoma-bearing lung, 2 h post-injection, 16 days post the cell injection) of 2 ± 0.74 %ID/g and a tissue uptake at 4 h ([2]; metastatic melanoma-bearing lung, 4 h post-injection, 16 days post the cell injection) of 1.83 ± 0.12 %ID/g. The tissue uptake at 24 h ([2]; metastatic melanoma-bearing lung, 24 h post-injection, 16 days post the cell injection) was 0.29 ± 0.06 %ID/g, the dose excreted ([2]; urine, by 2 h post-injection, read-out: injected radioactivity cleared through the urinary system) was about 84% and the “stability in mouse serum” value [3] was “stable”.
